Assays:
TRKA = molecular target: T1, TRKA (Homo sapiens, UniProt P04629); assay: FRET-based Z'-Lyte kinase assay; format: biochemical; conditions: mean ± SD, read-out: IC50 TRKA kinase inhibition
T1 construct: purchased Invitrogen

[1] = system: BaF3 cells harboring wild-type TRKA/B/C; assay: BaF3 cell proliferation, summary over wild-type lines; conditions: Mus musculus, BaF3, read-out: IC50 range in BaF3 cells harboring wild-type TRKA/B/C
Description: Murine BaF3 cells were purchased from JRCB cell bank. The BaF3 cell lines, which stably express natively-fused TRKA/B/C or various point mutants, were self-established by following previously described procedures. Briefly, NTRK genes were totally synthesized and cloned into pCDNA3.1(+) vectors (Invitrogen, Carlsbad, CA, USA). The pCDNA3.1(+) plasmids containing different NTRK-fusion genes were introduced into BaF3 cells by electroporation (Amaxa Nucleofector II device) using the “Amaxa Cell Line Nucleofector Kit V” (VCA-1003) according to the manufacturer’s directions. Stable strains were established by selection of cells 2 weeks post-transfection with 800 μg/mL G418 (Merck, Whitehouse Station, NJ) and further selection after the withdrawal of interleukin-3 (IL-3, R&D) for 2 weeks. All of BaF3 stable cell lines were verified by DNA sequencing, protein expression and anti-proliferation activity against positive drugs. […]
(§2) Cells were placed in 96-well plates (5000~8000/well) in complete medium. […] IC50 values were calculated by concentration-response curve fitting using GraphPad Prism 5.0 software. Each IC50 value is expressed as mean ± SD.

BaF3 ETV6-TRKC-G623R = assay: BaF3 cell proliferation, CCK-8 assay; conditions: Mus musculus, BaF3, 72 h, read-out: IC50 (nM ± SD) Solvent Front ETV6-TRKC-G623R
Description: (§3) Murine BaF3 cells were purchased from JRCB cell bank. The BaF3 cell lines, which stably express natively-fused TRKA/B/C or various point mutants, were self-established by following previously described procedures. Briefly, NTRK genes were totally synthesized and cloned into pCDNA3.1(+) vectors (Invitrogen, Carlsbad, CA, USA). […] Stable strains were established by selection of cells 2 weeks post-transfection with 800 μg/mL G418 (Merck, Whitehouse Station, NJ) and further selection after the withdrawal of interleukin-3 (IL-3, R&D) for 2 weeks. All of BaF3 stable cell lines were verified by DNA sequencing, protein expression and anti-proliferation activity against positive drugs. […] All cells were grown at 37 °C in a humidified 5% CO2 atmosphere.
as §2

BaF3 EML4-TRKC = assay: BaF3 cell proliferation, CCK-8 assay; conditions: Mus musculus, BaF3, 72 h, read-out: IC50 (nM ± SD) WT EML4-TRKC
Description: as §3, §2

[2] = system: BaF3 cells with solvent front mutations (TRKA^G595R, TRKB^G639R, TRKC^G623R); assay: BaF3 cell proliferation, summary over solvent front lines; conditions: Mus musculus, BaF3, read-out: IC50 range in cells with solvent front mutations
Description: as §3, §2

TRKC-G696C = molecular target: T2, TRKC-G696C (Homo sapiens, UniProt Q16288, G696C); assay: Bio-layer interferometry (BLI) Octet binding assay
T2 construct: residues 526–839 from the kinase domain; made in house
Description: Biolayer interferometry (BLI) assays were performed with the Octet K2 machine (ForteBio, Inc., Fremont, CA, USA). […] A duplicate set of sensors was incubated in an assay buffer (PBS containing 0.02% Tween20 and 0.1% BSA) with 5% DMSO but without protein for use as a background binding control. Both sets of sensors were blocked with a solution of 10 μg/mL biocytin for 1 min at rt. […] Data was analyzed by the FortéBio Data Analysis 8.1 software (FortéBio, Fremont, CA, USA) using a double reference subtraction (sample and sensor references).

BaF3 ETV6-TRKB = assay: BaF3 cell proliferation, CCK-8 assay; conditions: Mus musculus, BaF3, 72 h, read-out: IC50 (nM ± SD) WT ETV6-TRKB
Description: as §3, §2

BaF3 MPRIP-TRKA = assay: BaF3 cell proliferation, CCK-8 assay; conditions: Mus musculus, BaF3, 72 h, read-out: IC50 (nM ± SD) WT MPRIP-TRKA
Description: as §3, §2

BaF3 CD74-TRKA-G667C = assay: BaF3 cell proliferation, CCK-8 assay; conditions: Mus musculus, BaF3, 72 h, read-out: IC50 (nM ± SD) xDFG CD74-TRKA-G667C
Description: as §3, §2

[3] = system: BaF3-CD74-TRKA-G667C xenograft; assay: BaF3-CD74-TRKA-G667C xenograft model; format: in vivo; conditions: for TGI (tumor growth inhibition): intraperitoneally once daily, 12 consecutive days
[4] = system: TRKs-xDGF mutants TRKA-G667C, TRKB-G709C and TRKC-G696C in stable BaF3 models; assay: Western blot of xDFG mutant TRK signal pathway (Figure S2); format: cell-based, Murine; conditions: 6 h
Description: Cells were treated with various concentrations of each tested compound for a designated time. Then cells were lysed using 1 × SDS sample lysis buffer (CST recommended) with protease and phosphatase inhibitors. […] The films were blocked with 5% fat-free milk in TBS solution containing 0.5% Tween-20 for 4 h at room temperature, then incubated with the corresponding primary antibody (1:1000–1:200) overnight at 4 °C. After washing with TBST, HRP-conjugated secondary antibody was incubated for 2 h. The protein signals were visualized by ECL Western Blotting Detection Kit (Thermo Scientific, Waltham, MA, USA), and detected with Amersham Imager 600 system (GE, Boston, MA, USA).

BaF3 ETV6-TRKC = assay: BaF3 cell proliferation, CCK-8 assay; conditions: Mus musculus, BaF3, 72 h, read-out: IC50 (nM ± SD) WT ETV6-TRKC
Description: as §3, §2

TRKC = molecular target: T3, TRKC (Homo sapiens, UniProt Q16288); assay: FRET-based Z'-Lyte kinase assay; format: biochemical; conditions: mean ± SD, read-out: IC50 TRKC kinase inhibition
T3 construct: purchased Invitrogen
Description: (§1) TRKA/B/C and the Z′-Lyte Kinase Assay Kit were purchased from Invitrogen. Assays were performed according to the manufacturer’s instructions. […] The solutions of the compounds were diluted from 10^−10 M to […] in DMSO and a 400 μM solution of the compound was prepared with 4 μL of the solution of the compound dissolved in 96 μL water. […] For each assay, 10 μL of a kinase solution, including 2.5 μL of the compound solution, 5 μL of the kinase/peptide mixture, and 2.5 μL of the ATP solution was prepared. The plate wells were mixed thoroughly and incubated for 1 h at room temperature (rt). Then 5 μL of the development solution was added to each well and the plate was incubated for 1 h at rt; the […] were cleaved in this time. Finally, 5 μL of stop reagent was added to stop the reaction. For the control setting, 5 μL of the phosphopeptide solution instead of the kinase/peptide mixture was used as a 100% phosphorylation control. […] The plate was measured on an EnVision Multilabel Reader (Perkin-Elmer). Curve fitting and data presentation was performed using GraphPad Prism, version 5.0. Every experiment was repeated at least 2 times.

TRKB = molecular target: T4, TRKB (Homo sapiens, UniProt Q16620); assay: FRET-based Z'-Lyte kinase assay; format: biochemical; conditions: mean ± SD, read-out: IC50 TRKB kinase inhibition
T4 construct: purchased Invitrogen
Description: as §1

TRKA-G667C = TRKA-G667C (Homo sapiens, UniProt P04629, G667C); assay: FRET-based Z'-Lyte kinase assay; format: biochemical
Description: as §1

BaF3 CD74-TRKA-G595R = assay: BaF3 cell proliferation, CCK-8 assay; conditions: Mus musculus, BaF3, 72 h, read-out: IC50 (nM ± SD) Solvent Front CD74-TRKA-G595R
Description: as §3, §2

BaF3 ETV6-TRKB-G639R = assay: BaF3 cell proliferation, CCK-8 assay; conditions: Mus musculus, BaF3, 72 h, read-out: IC50 (nM ± SD) Solvent Front ETV6-TRKB-G639R
Description: as §3, §2

Cc1c(C#Cc2cnc3cnc(-c4ccc(N)cc4)cn23)cccc1C(=O)Nc1cc(CN2CCN(C)CC2)cc(C(C)C)c1 [JND4135, 3-((6-(4-aminophenyl)imidazo[1,2-a]pyrazin-3-yl)ethynyl)-N-(3-isopropyl-5-((4-methylpiperazin-1-yl)methyl)phenyl)-2-methylbenzamide]
IC50 (TRKA): 2.79 ± 1.17 nM
IC50 [1]: 2.4 to 23.1 nM
IC50 (BaF3 ETV6-TRKC-G623R): 9.4 ± 2.6 nM
IC50 (BaF3 EML4-TRKC): 13.2 ± 2.6 nM
IC50 [2]: 9.4 to 33.7 nM
koff (TRKC-G696C; Koff, read-out: dissociation rate with TRKC-G696C): 0.00135 s⁻¹
Kd (TRKC-G696C; read-out: Kd, binding affinity to TRKC-G696C): 3.68 nM
IC50 (BaF3 ETV6-TRKB): 23.1 ± 5.9 nM
IC50 (BaF3 MPRIP-TRKA): 7.1 ± 2.3 nM
IC50 (BaF3 CD74-TRKA-G667C): 1.4 ± 0.2 nM
TGI (tumor growth inhibition) ([3]; 20 mg/kg): 34.2%
TGI (tumor growth inhibition) ([3]; 40 mg/kg): 81.0%
tolerability (mortality, body weight) ([3]; 20 and 40 mg/kg/day, 12 days): no mortality or significant body weight loss
activation of TRKA and downstream molecules PLCγ-1 and ERK in tumor tissues ([3]; tumor tissues at end of treatment, Western blot): effectively inhibit
dose that effectively inhibits the activation of TRKs-xDGF mutants [4]: 8.0 nM
IC50 (BaF3 ETV6-TRKC): 10.4 ± 4 nM
IC50 (TRKC): 3.01 ± 0.43 nM
IC50 (TRKB): 3.19 ± 1.76 nM
fold stronger kinase inhibition of TRKA-G667C than TRKA-WT (TRKA-G667C): 3.3 fold
IC50 (TRKA-G667C; Z'-Lyte, mean ± SD, read-out: IC50 TRKA-G667C kinase inhibition): 0.83 ± 0.06 nM
IC50 (BaF3 CD74-TRKA-G595R): 33.7 ± 7.1 nM
IC50 (BaF3 ETV6-TRKB-G639R): 10.1 ± 3.9 nM
